Results from PubChem BioAssay AID256 (DTP/NCI, 2004).
Values joined by “and” are separate entries in the source; they are usually repeats but may differ in a detail not shown here. Identical values can stand only once. Inconclusive results and toxic doses are left out. Rule for the calls: active = survival T/C of 150% or more; inactive = T/C below 125% in these data.

Test system: CD2F1 mice, L1210 leukemia ip, survival T/C
Assay: NCI In Vivo Anticancer Drug Screen. Data for tumor model L1210 Leukemia (intraperitoneal) in CD2F1 (CDF1) mice
Conditions: higher = longer survival
In short: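 Read-out first: treated-group measurement over vehicle-control measurement, expressed as a ratio. Animals bore a transplanted tumor line and were dosed with compound or vehicle.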

[1] = endpoint: mean survival time, dose: 100.0 mg/kg/injection, schedule: Q04DX003 (ip), vehicle: saline with Tween-80
[2] = endpoint: mean survival time, dose: 200.0 mg/kg/injection, schedule: Q04DX003 (ip), vehicle: saline with Tween-80
[3] = endpoint: mean survival time, dose: 400.0 mg/kg/injection, schedule: Q04DX003 (ip), vehicle: saline with Tween-80
[4] = endpoint: mean survival time, dose: 50.0 mg/kg/injection, schedule: Q01DX009 (ip), vehicle: saline with Tween-80
[5] = endpoint: mean survival time, dose: 200.0 mg/kg/injection, schedule: Q01DX009 (ip), vehicle: saline with Tween-80
[6] = endpoint: mean survival time, dose: 100.0 mg/kg/injection, schedule: Q01DX009 (ip), vehicle: saline with Tween-80
[7] = endpoint: mean survival time, dose: 2.5 mg/kg/injection, schedule: Q01DX009 (ip), vehicle: saline with Tween-80
[8] = endpoint: mean survival time, dose: 5.0 mg/kg/injection, schedule: Q01DX009 (ip), vehicle: saline with Tween-80
[9] = endpoint: mean survival time, dose: 400.0 mg/kg/injection, schedule: Q01DX009 (ip), vehicle: saline with Tween-80
[10] = endpoint: mean survival time, dose: 100.0 mg/kg/injection, schedule: Q01DX001 (ip), vehicle: saline with Tween-80
[11] = endpoint: mean survival time, dose: 200.0 mg/kg/injection, schedule: Q01DX001 (ip), vehicle: saline with Tween-80
[12] = endpoint: mean survival time, dose: 400.0 mg/kg/injection, schedule: Q01DX001 (ip), vehicle: saline with Tween-80
[13] = endpoint: mean survival time, dose: 100.0 mg/kg/injection, schedule: Q04DX002 (ip), vehicle: saline with Tween-80
[14] = endpoint: mean survival time, dose: 100.0 mg/kg/injection, schedule: Q01DX001 (ip), vehicle: saline

Measured: T/C

O=C(N1CCC2(CC1)SSC1(CCN(C(=O)C(F)(F)F)CC1)S2)C(F)(F)F
inactive: [1] 88 % of control | [2] 90 % of control | [3] 90 % of control

O=C(NNC(=O)c1cccnc1)Nc1cccc(Cl)c1Cl
inactive: [4] 94 % of control | [5] 101 % of control

Cc1cc(NC(=O)NCc2ccc(N3C(N)=NC(N)=NC3(C)C)cc2)ccc1S(=O)(=O)F
inactive: endpoint: mean survival time, dose: 12.5 mg/kg/injection, schedule: Q01DX009 (ip), vehicle: saline with Tween-80 101 % of control | endpoint: mean survival time, dose: 25.0 mg/kg/injection, schedule: Q01DX009 (ip), vehicle: saline with Tween-80 106 % of control | [4] 104 % of control | [6] 123 % of control

CCCCCCCCCCCCCCCC1=NC(C)(C)CN1C(C)C
inactive: endpoint: mean survival time, dose: 1.25 mg/kg/injection, schedule: Q01DX009 (ip), vehicle: saline with Tween-80 95 % of control | [7] 102 % of control | [8] 98 % of control

O=C(O)CCn1ccccc1=O
inactive: [6] 94 % of control | [1] 95 % of control | [5] 93 % of control | [2] 96 % of control | [9] 94 % of control | [3] 95 % of control

CNNCCC(=O)NC(C)C
inactive: endpoint: mean survival time, dose: 25.0 mg/kg/injection, schedule: Q04DX003 (ip), vehicle: saline 106 % of control | endpoint: mean survival time, dose: 50.0 mg/kg/injection, schedule: Q04DX003 (ip), vehicle: saline 103 % of control | endpoint: mean survival time, dose: 100.0 mg/kg/injection, schedule: Q04DX003 (ip), vehicle: saline 101 % of control | endpoint: mean survival time, dose: 200.0 mg/kg/injection, schedule: Q04DX003 (ip), vehicle: saline 91 % of control

O=C1C(c2ccccc2)=[N+]([O-])[N+]([O-])=C1c1ccccc1
inactive: endpoint: mean survival time, dose: 50.0 mg/kg/injection, schedule: Q01DX009 (ip), vehicle: Klucel (hydroxypropylcellulose) (HPC) 97 % of control | endpoint: mean survival time, dose: 100.0 mg/kg/injection, schedule: Q01DX009 (ip), vehicle: Klucel (hydroxypropylcellulose) (HPC) 97 % of control | endpoint: mean survival time, dose: 200.0 mg/kg/injection, schedule: Q01DX009 (ip), vehicle: Klucel (hydroxypropylcellulose) (HPC) 101 % of control

CS(=O)(=O)OC1CCCCC1c1ccccc1 (centres undefined)
inactive: endpoint: mean survival time, dose: 100.0 mg/kg/injection, schedule: Q01DX001 (ip), vehicle: carboxymethylcellulose (CMC) 103 % of control | endpoint: mean survival time, dose: 200.0 mg/kg/injection, schedule: Q01DX001 (ip), vehicle: carboxymethylcellulose (CMC) 103 % of control | endpoint: mean survival time, dose: 400.0 mg/kg/injection, schedule: Q01DX001 (ip), vehicle: carboxymethylcellulose (CMC) 101 % of control

CC(=O)Nc1ccccc1C(=O)C(=O)Nc1ccccc1C(=O)NN
inactive: [4] 95 % of control | [6] 91 % of control | [5] 87 % of control

CC(=O)OCC(OC(C)=O)C(OC(C)=O)C(OC(C)=O)C(COC(=O)c1ccccc1)OC(=O)c1ccccc1 (centres undefined)
inactive: [10] 96 % of control | [11] 100 % of control | [12] 96 % of control

[Cl][Pt+2][Cl].[NH-]c1cc(Cl)c(Cl)cc1[NH-]
inactive: [7] 107 % of control | [8] 105 % of control | endpoint: mean survival time, dose: 10.0 mg/kg/injection, schedule: Q01DX009 (ip), vehicle: saline with Tween-80 111 % of control | endpoint: mean survival time, dose: 20.0 mg/kg/injection, schedule: Q01DX009 (ip), vehicle: saline with Tween-80 106 % of control and 112 % of control | endpoint: mean survival time, dose: 40.0 mg/kg/injection, schedule: Q01DX009 (ip), vehicle: saline with Tween-80 105 % of control and 112 % of control | endpoint: mean survival time, dose: 80.0 mg/kg/injection, schedule: Q01DX009 (ip), vehicle: saline with Tween-80 110 % of control | endpoint: mean survival time, dose: 160.0 mg/kg/injection, schedule: Q01DX009 (ip), vehicle: saline with Tween-80 104 % of control | endpoint: mean survival time, dose: 320.0 mg/kg/injection, schedule: Q01DX009 (ip), vehicle: saline with Tween-80 107 % of control

Cc1ccc(S(=O)(=O)NC(=O)OCCc2c3ccccc3nc3ccccc23)cc1
inactive: endpoint: mean survival time, dose: 100.0 mg/kg/injection, schedule: Q04DX002 (ip), vehicle: other 97 % of control | [13] 97 % of control | endpoint: mean survival time, dose: 200.0 mg/kg/injection, schedule: Q04DX002 (ip), vehicle: other 97 % of control | endpoint: mean survival time, dose: 200.0 mg/kg/injection, schedule: Q04DX002 (ip), vehicle: saline with Tween-80 109 % of control

O=c1ccn(C2OC(CO)C3[O][Sn]([c]4ccccc4)([c]4ccccc4)[O]C32)c(=O)[nH]1 (centres undefined)
inactive: endpoint: mean survival time, dose: 1.56 mg/kg/injection, schedule: Q01DX005 (ip), vehicle: other 110 % of control | endpoint: mean survival time, dose: 3.13 mg/kg/injection, schedule: Q01DX005 (ip), vehicle: other 107 % of control | endpoint: mean survival time, dose: 6.25 mg/kg/injection, schedule: Q01DX005 (ip), vehicle: other 98 % of control | endpoint: mean survival time, dose: 12.5 mg/kg/injection, schedule: Q01DX005 (ip), vehicle: other 102 % of control and 105 % of control

O=C(NCCCl)NC1CCSc2ccccc21 (centres undefined)
inactive: [4] 95 % of control | [6] 91 % of control | [5] 91 % of control

CN(C)Cc1cccc(CN(C)C)c1O
inactive: [14] 106 % of control

CC(=O)NC(CSC(c1ccccc1)(c1ccccc1)c1ccccc1)C(=O)O (centres undefined)
inactive: endpoint: mean survival time, dose: 25.0 mg/kg/injection, schedule: Q01DX009 (ip), vehicle: saline 101 % of control | endpoint: mean survival time, dose: 50.0 mg/kg/injection, schedule: Q01DX009 (ip), vehicle: saline 100 % of control | endpoint: mean survival time, dose: 100.0 mg/kg/injection, schedule: Q01DX009 (ip), vehicle: saline 101 % of control

CCOc1nc(N)nc2c1ncn2C1CC(O)C(CO)O1 (centres undefined)
inactive: endpoint: mean survival time, dose: 12.5 mg/kg/injection, schedule: Q01DX005 (ip), vehicle: water 95 % of control | endpoint: mean survival time, dose: 25.0 mg/kg/injection, schedule: Q01DX005 (ip), vehicle: water 98 % of control | endpoint: mean survival time, dose: 50.0 mg/kg/injection, schedule: Q01DX005 (ip), vehicle: water 102 % of control | endpoint: mean survival time, dose: 100.0 mg/kg/injection, schedule: Q01DX005 (ip), vehicle: water 109 % of control | endpoint: mean survival time, dose: 200.0 mg/kg/injection, schedule: Q01DX005 (ip), vehicle: water 98 % of control

Oc1ccc(-c2nc3ccccc3s2)cc1
inactive: [10] 91 % of control | [11] 95 % of control | [12] 91 % of control

COc1nc(NC2OC(CO)C(O)C(O)C2O)c(Br)c(=O)[nH]1 (centres undefined)
inactive: endpoint: median survival time, dose: 12.5 mg/kg/injection, schedule: Q01DX005 (ip), vehicle: saline 100 % of control | endpoint: median survival time, dose: 25.0 mg/kg/injection, schedule: Q01DX005 (ip), vehicle: saline 101 % of control | endpoint: median survival time, dose: 50.0 mg/kg/injection, schedule: Q01DX005 (ip), vehicle: saline 102 % of control | endpoint: median survival time, dose: 100.0 mg/kg/injection, schedule: Q01DX005 (ip), vehicle: saline 101 % of control | endpoint: median survival time, dose: 200.0 mg/kg/injection, schedule: Q01DX005 (ip), vehicle: saline 101 % of control

CC1=NN(c2ccccc2)C(=O)C1N=Nc1ccccc1S(=O)(=O)O (centres undefined)
inactive: [6] 103 % of control | [1] 97 % of control | [5] 97 % of control | [2] 103 % of control | [9] 101 % of control | [3] 112 % of control

NC(CC(=O)NC(=O)OCc1ccccc1)C(=O)O (centres undefined)
inactive: [6] 100 % of control | [1] 101 % of control | [5] 102 % of control | [2] 101 % of control | [9] 102 % of control | [3] 98 % of control

O=C1OC(c2ccc(O)cc2)(c2ccc(O)cc2)c2ccccc21
inactive: [6] 95 % of control | [1] 107 % of control | [5] 91 % of control | [2] 94 % of control | [9] 89 % of control | [3] 93 % of control

O=C(O)/C=C/C(=O)NCc1ccco1
inactive: [1] 94 % of control | [2] 94 % of control | [3] 94 % of control

CCCCN(CCCC)CC(O)c1ccccc1 (centres undefined)
inactive: [13] 88 % of control

CC(CCC(=O)O)C1CCC2C3CCC4CCCCC4(C)C3CCC12C (centres undefined)
inactive: [10] 98 % of control | [11] 93 % of control | [12] 92 % of control

C[N+](C)(C)CCCNC(=O)Nc1ccc(Cl)cc1
inactive: endpoint: mean survival time, dose: 6.25 mg/kg/injection, schedule: Q04DX002 (ip), vehicle: saline 106 % of control | endpoint: mean survival time, dose: 25.0 mg/kg/injection, schedule: Q04DX002 (ip), vehicle: saline 100 % of control

CC(C)CC(NC(c1ccccc1)(c1ccccc1)c1ccccc1)C(=O)O (centres undefined)
inactive: [14] 102 % of control | endpoint: mean survival time, dose: 200.0 mg/kg/injection, schedule: Q01DX001 (ip), vehicle: saline 95 % of control | endpoint: mean survival time, dose: 400.0 mg/kg/injection, schedule: Q01DX001 (ip), vehicle: saline 102 % of control

COC(C[P+](Cc1ccccc1)(c1ccccc1)c1ccccc1)OC
inactive: endpoint: mean survival time, dose: 18.8 mg/kg/injection, schedule: Q04DX003 (ip), vehicle: saline 104 % of control | endpoint: mean survival time, dose: 37.5 mg/kg/injection, schedule: Q04DX003 (ip), vehicle: saline 103 % of control | endpoint: mean survival time, dose: 75.0 mg/kg/injection, schedule: Q01DX001 (ip), vehicle: saline 101 % of control | endpoint: mean survival time, dose: 75.0 mg/kg/injection, schedule: Q04DX003 (ip), vehicle: saline 98 % of control
